Laboratory results reported in ChEMBL document CHEMBL1139735, “Inhibitors of unactivated p38 MAP kinase” (Bioorg Med Chem Lett, 2006).
One block for each molecule: values may come before it. Calls of active or inactive are those of the source. The calls are words filed in the database; no cut-off is given here.

Legend:
Mus musculus [1] = assay: Toxicity in mouse at 200 mg/kg; type: organism-based; design: dose 200 mg/kg; settings: in vivo
PBMC = assay: Inhibition of TNF production in human PBMC; type: functional, cell-based
MAP kinase p38 [2] = biological target: T1, MAP kinase p38 (Homo sapiens, UniProt O15264+Q15759+Q16539+P53778); assay: Inhibition of p38 phosphorylation; type: protein assay
Cytochrome P450 1A2 = biological target: T2, Cytochrome P450 1A2 (Homo sapiens, UniProt P05177); assay: Inhibition of CYP1A2 below 15 uM; type: ADME
T2 sequence (P05177 whole entry): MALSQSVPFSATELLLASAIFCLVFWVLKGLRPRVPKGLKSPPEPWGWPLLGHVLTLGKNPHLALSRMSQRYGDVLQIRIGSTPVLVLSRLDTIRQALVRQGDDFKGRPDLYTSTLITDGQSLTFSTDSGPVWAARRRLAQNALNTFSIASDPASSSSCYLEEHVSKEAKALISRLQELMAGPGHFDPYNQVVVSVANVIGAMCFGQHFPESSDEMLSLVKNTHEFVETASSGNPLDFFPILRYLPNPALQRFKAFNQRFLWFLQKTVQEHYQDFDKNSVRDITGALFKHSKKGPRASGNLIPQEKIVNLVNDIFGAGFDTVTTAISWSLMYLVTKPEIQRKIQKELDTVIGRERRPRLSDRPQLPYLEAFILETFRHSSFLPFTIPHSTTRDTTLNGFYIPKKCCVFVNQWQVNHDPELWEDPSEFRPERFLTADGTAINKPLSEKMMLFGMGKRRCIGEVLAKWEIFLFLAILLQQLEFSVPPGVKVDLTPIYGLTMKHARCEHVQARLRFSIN

Cytochrome P450 2D6 = Cytochrome P450 2D6 (Homo sapiens, UniProt P10635); assay: Inhibition of CYP2D6 below 15 uM; type: ADME
Sequence of Cytochrome P450 2D6 (P10635 whole entry): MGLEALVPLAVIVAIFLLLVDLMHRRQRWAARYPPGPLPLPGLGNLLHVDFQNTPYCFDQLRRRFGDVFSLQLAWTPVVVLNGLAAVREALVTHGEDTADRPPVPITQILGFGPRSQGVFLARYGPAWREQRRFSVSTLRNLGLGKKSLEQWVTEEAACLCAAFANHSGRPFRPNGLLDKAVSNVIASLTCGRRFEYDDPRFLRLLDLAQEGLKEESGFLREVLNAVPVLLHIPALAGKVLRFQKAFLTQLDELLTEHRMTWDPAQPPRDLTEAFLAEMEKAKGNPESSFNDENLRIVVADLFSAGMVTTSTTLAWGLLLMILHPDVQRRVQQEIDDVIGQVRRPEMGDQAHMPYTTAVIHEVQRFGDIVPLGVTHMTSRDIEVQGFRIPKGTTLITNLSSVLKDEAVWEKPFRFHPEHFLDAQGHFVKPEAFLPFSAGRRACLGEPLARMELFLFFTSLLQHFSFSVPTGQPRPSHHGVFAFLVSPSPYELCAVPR

Cytochrome P450 2C19 = Cytochrome P450 2C19 (Homo sapiens, UniProt P33261); assay: Inhibition of CYP2C19; type: ADME
Sequence of Cytochrome P450 2C19 (P33261 whole entry): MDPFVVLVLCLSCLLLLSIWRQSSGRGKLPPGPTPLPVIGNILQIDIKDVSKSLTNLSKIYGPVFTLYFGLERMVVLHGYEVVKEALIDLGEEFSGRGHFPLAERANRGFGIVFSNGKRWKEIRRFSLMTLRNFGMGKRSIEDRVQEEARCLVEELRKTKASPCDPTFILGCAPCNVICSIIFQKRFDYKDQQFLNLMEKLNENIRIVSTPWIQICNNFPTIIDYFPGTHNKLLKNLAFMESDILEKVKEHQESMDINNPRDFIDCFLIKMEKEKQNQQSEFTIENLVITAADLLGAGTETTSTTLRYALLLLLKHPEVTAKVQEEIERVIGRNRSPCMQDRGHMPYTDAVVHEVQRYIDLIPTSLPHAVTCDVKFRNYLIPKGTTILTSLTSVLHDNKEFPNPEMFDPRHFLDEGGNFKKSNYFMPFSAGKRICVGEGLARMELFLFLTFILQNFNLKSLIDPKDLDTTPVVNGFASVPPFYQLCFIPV

Cytochrome P450 2C9 = Cytochrome P450 2C9 (Homo sapiens, UniProt P11712); assay: Inhibition of CYP2C9; type: ADME
Sequence of Cytochrome P450 2C9 (P11712 whole entry): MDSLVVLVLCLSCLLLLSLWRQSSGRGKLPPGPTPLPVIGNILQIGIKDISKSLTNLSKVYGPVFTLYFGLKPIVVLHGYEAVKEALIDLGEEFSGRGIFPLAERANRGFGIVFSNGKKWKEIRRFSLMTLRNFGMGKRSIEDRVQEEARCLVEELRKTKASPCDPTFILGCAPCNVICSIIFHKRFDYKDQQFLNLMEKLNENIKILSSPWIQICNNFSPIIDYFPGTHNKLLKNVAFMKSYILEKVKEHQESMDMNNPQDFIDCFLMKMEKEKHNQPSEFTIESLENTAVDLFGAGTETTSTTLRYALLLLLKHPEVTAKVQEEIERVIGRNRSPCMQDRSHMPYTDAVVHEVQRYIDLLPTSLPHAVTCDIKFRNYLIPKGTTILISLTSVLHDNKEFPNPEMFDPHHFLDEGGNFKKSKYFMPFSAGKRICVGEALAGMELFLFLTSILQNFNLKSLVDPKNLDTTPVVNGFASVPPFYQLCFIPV

Cytochrome P450 3A4 = Cytochrome P450 3A4 (Homo sapiens, UniProt P08684); assay: Inhibition of CYP3A4 below 15 uM; type: ADME
Sequence of Cytochrome P450 3A4 (P08684 whole entry): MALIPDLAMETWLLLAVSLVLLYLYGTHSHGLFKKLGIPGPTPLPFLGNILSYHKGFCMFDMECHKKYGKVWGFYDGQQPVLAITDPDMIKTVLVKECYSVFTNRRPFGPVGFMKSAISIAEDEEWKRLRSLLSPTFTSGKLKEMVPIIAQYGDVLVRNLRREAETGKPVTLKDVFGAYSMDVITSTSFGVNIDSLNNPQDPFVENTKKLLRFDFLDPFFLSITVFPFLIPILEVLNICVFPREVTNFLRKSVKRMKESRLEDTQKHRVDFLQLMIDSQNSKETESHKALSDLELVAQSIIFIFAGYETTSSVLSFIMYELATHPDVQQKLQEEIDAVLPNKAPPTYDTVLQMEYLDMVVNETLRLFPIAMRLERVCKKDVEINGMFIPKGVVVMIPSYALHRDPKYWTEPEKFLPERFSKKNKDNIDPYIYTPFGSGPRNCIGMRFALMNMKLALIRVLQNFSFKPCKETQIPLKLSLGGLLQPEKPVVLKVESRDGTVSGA

Mus musculus [3] = assay: Inhibition of collagen-induced arthritis in mouse at 30 mg/kg, po; type: functional
[4] = biological target: Mitogen-activated protein kinase 14 (Homo sapiens, UniProt Q16539); assay: Binding affinity to p38alpha
Sequence of Mitogen-activated protein kinase 14 (Q16539 whole entry): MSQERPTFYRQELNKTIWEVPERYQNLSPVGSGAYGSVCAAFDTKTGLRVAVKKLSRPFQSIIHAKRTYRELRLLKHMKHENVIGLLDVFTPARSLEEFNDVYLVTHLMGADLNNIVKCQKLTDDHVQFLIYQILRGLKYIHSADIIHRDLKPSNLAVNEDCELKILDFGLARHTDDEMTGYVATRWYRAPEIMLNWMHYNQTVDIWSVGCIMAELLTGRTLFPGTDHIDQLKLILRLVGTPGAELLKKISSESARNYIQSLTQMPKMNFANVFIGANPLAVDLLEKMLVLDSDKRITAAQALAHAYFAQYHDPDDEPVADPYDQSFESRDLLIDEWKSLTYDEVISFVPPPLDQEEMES

MAP kinase p38 [5] = biological target: T1, MAP kinase p38; assay: Inhibition of p38 kinase; type: protein assay
Mus musculus [6] = assay: Inhibition of TNF production in orally dosed mouse model; type: functional; settings: po
Rattus norvegicus = assay: Reduction of swelling in adjuvant-induced arthritis rat at 30 mg/kg, po; type: functional; design: scale not given: the % may be the effect or the level left
Mus musculus [7] = assay: Inhibition of LPS-induced TNF production in mouse at 10 mg/kg after 2 hrs; type: functional
MAP kinase p38 [8] = biological target: T1, MAP kinase p38; assay: Inhibition of activated p38 kinase up to 10 uM; type: protein assay
[9] = biological target: T3, 5-hydroxytryptamine receptor 3A (Homo sapiens, UniProt P46098); assay: Inhibition of 5HT3 receptor
T3 sequence (P46098 whole entry): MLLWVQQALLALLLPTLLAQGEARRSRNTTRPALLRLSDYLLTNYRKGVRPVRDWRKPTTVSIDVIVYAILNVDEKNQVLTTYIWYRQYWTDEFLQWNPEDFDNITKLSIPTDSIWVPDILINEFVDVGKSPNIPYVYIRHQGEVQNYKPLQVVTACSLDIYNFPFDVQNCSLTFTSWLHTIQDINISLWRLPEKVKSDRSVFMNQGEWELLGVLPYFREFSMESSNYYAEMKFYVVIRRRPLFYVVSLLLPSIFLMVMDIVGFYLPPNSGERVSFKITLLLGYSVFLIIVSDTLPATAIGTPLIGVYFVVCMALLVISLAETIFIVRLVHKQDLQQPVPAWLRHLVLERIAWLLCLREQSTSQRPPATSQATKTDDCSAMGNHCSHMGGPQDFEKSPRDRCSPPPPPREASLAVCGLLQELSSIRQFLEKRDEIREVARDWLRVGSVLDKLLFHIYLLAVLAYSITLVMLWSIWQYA

Mus musculus [10] = assay: Inhibition of TNF production in mouse at 10 mg/kg; type: functional
[11] = Bioavailability in monkey; type: ADME, organism-based, Macaca mulatta; settings: rhesus monkey, in vivo
[12] = Bioavailability in dog; type: ADME, organism-based, Canis lupus familiaris; settings: in vivo
[13] = Bioavailability in mouse; type: ADME, organism-based; settings: in vivo
[14] = Bioavailability in rat; type: ADME, organism-based; settings: in vivo

SMILES: CC(=O)c1c(-c2ccc(F)cc2)c(-c2ccncc2)c(N2CCN(C(C)=O)CC2)n1C
Activity (Mus musculus [1]): Non-toxic
IC50 (PBMC): 43 nM

Activity (MAP kinase p38 [2]): Active
SMILES: CC(=O)N1CCN(c2c(-c3ccncc3)c(-c3ccc(F)cc3)c(C#N)n2C)CC1 [listing 1 of 2 here]

SMILES: Cn1cc(-c2ccc(F)cc2)c(-c2ccncc2)c1N1CCNCC1
IC50 (PBMC): 15 nM

Activity (Cytochrome P450 1A2): Not Active
Activity (Cytochrome P450 2D6): Not Active
IC50 (Cytochrome P450 2C19): 8000 nM
IC50 (Cytochrome P450 2C9): 4000 nM
Activity (Cytochrome P450 3A4): Not Active
Kd [4]: 100 nM
IC50 (MAP kinase p38 [5]): 2000 nM
SMILES: CC(=O)N1CCN(c2c(-c3ccncc3)c(-c3ccc(F)cc3)c(C#N)n2C)CC1 [listing 2 of 2 here]
Activity (Mus musculus [1]): Non-toxic
inhibition in vivo at 30 mg/kg (Mus musculus [3]): 50%
ED50 (Mus musculus [6]): 0.5 mg/kg
IC50 (PBMC): 123 nM
Activity (Rattus norvegicus): 91%

SMILES: CC(=O)c1c(-c2ccc(F)cc2)c(-c2ccncc2)c(N2CCN(C)CC2)n1C
inhibition in vivo at 10 mg/kg (Mus musculus [7]): 40%
IC50 (PBMC): 529 nM

SMILES: COC(=O)c1c(-c2ccc(F)cc2)c(-c2ccncc2)c(C2=CCNCC2)n1C
Activity (Mus musculus [1]): Non-toxic
IC50 (PBMC): 72 nM

Activity (MAP kinase p38 [8]): inactive
IC50 [9]: 275 nM
SMILES: COC(=O)c1c(-c2ccc(F)cc2)c(-c2ccncc2)c(N2CCNCC2)n1C
Activity (Mus musculus [1]): Toxic
ED50 (Mus musculus [6]): 7.5 mg/kg
IC50 (PBMC): 33 nM

IC50 (MAP kinase p38 [5]): > 10000 nM
SMILES: CCOC(=O)c1c(-c2cccc(C(F)(F)F)c2)c(-c2ccncc2)c(N2CCNCC2)n1C
IC50 (PBMC): 21 nM

SMILES: COC(=O)c1c(-c2ccc(F)cc2)c(-c2ccncc2)c(NCCN(C)C)n1C
IC50 (PBMC): 98 nM

SMILES: CC(=O)C(=O)c1c(-c2ccc(F)cc2)c(-c2ccncc2)c(N2CCNCC2)n1C
inhibition in vivo at 10 mg/kg (Mus musculus [10]): 52%
IC50 (PBMC): 28 nM

SMILES: COC(=O)c1c(-c2ccc(F)cc2)c(-c2ccncc2)c(NC2CCNCC2)n1C
IC50 (PBMC): 315 nM

SMILES: COC(=O)c1c(-c2ccc(F)cc2)c(-c2ccncc2)c(N(C)CCN2CCOCC2)n1C
inhibition in vivo at 10 mg/kg (Mus musculus [10]): 78%
ED50 (Mus musculus [6]): 3 mg/kg
IC50 (PBMC): 38 nM

SMILES: CCCN1CCN(c2c(-c3ccncc3)c(-c3ccc(F)cc3)c(C(=O)OC)n2C)CC1
IC50 (PBMC): 901 nM

SMILES: COC(=O)c1c(-c2ccc(F)cc2)c(-c2ccncc2)c(NCCN2CCOCC2)n1C
IC50 (PBMC): 50 nM

SMILES: COC(=O)c1c(-c2ccc(F)cc2)c(-c2ccncc2)c(N2CCCC2)n1C
IC50 (PBMC): 17 nM

IC50 (MAP kinase p38 [5]): 3939 nM
SMILES: CCOC(=O)c1c(-c2ccc(C)cc2)c(-c2ccncc2)c(N2CCNCC2)n1C
inhibition in vivo at 10 mg/kg (Mus musculus [10]): 79%
IC50 (PBMC): 60 nM

IC50 (MAP kinase p38 [5]): > 10000 nM
SMILES: CCOC(=O)c1c(-c2cc(F)cc(F)c2)c(-c2ccncc2)c(N2CCNCC2)n1C
inhibition in vivo at 10 mg/kg (Mus musculus [10]): 79%
IC50 (PBMC): 93 nM

SMILES: CCC(=O)c1c(-c2ccc(F)cc2)c(-c2ccncc2)c(N2CCNCC2)n1C
IC50 (PBMC): 67 nM

SMILES: COC(=O)c1c(-c2ccc(F)cc2)c(-c2ccncc2)c(N2CCN(C(C)C)CC2)n1C
IC50 (PBMC): 1980 nM

SMILES: CN1CCN(c2c(-c3ccncc3)c(-c3ccc(F)cc3)c(C#N)n2C)CC1
IC50 (PBMC): 80 nM

SMILES: CC(C)NC(=O)c1c(-c2ccc(F)cc2)c(-c2ccncc2)c(N2CCNCC2)n1C
IC50 (PBMC): 10000 nM

SMILES: Cn1c(C#N)c(-c2ccc(F)cc2)c(-c2ccncc2)c1N1CCNCC1
ED50 (Mus musculus [6]): 5 mg/kg
IC50 (PBMC): 18 nM

SMILES: CC(=O)c1c(-c2ccc(F)cc2)c(-c2ccncc2)c(N2CCNCC2)n1C
Activity (Mus musculus [1]): Non-toxic
IC50 (PBMC): 40 nM

bioavailability [11]: 70%
bioavailability [12]: 70%
bioavailability [13]: 70%
bioavailability [14]: 70%
SMILES: CC(=O)N1CCN(c2c(-c3ccncc3)c(-c3ccc(F)cc3)c(C#N)n2C)CC1.Cl

SMILES: COC(=O)c1c(-c2ccc(F)cc2)c(-c2ccncc2)c(N2CCN(C)CC2)n1C
Activity (Mus musculus [1]): Non-toxic
IC50 (PBMC): 95 nM

SMILES: Cn1c(C(=O)c2ccccc2)c(-c2ccc(F)cc2)c(-c2ccncc2)c1N1CCNCC1
IC50 (PBMC): 660 nM

SMILES: CNC(=O)c1c(-c2ccc(F)cc2)c(-c2ccncc2)c(N2CCNCC2)n1C
IC50 (PBMC): 779 nM

SMILES: COC(=O)c1c(-c2ccc(F)cc2)c(-c2ccncc2)c(NCCN2CCCCC2)n1C
IC50 (PBMC): 92 nM

SMILES: CCN1CCN(c2c(-c3ccncc3)c(-c3ccc(F)cc3)c(C(=O)OC)n2C)CC1
Activity (Mus musculus [1]): Non-toxic
IC50 (PBMC): 135 nM

SMILES: COC(=O)c1c(-c2ccc(F)cc2)c(-c2ccncc2)c(N2CCOCC2)n1C
IC50 (PBMC): 47 nM
